Data from US9249147B2, “Tyrosine kinase inhibitors” (CHEMBRIDGE CORPORATION, priority 2008, dated 2016).
pIC50: −log10 of the molar value. Where “and” joins values, the source holds several entries; their conditions need not be identical. Equal values may be shown once.

Tests used:
[1] = Acute IV toxicity in mice; format: in vivo; conditions: 1 mg/kg intravenously, 24 hour observation
[2] = test system: 10 Ser-Thr kinases; experiment: Single point radiometric profiling on Ser-Thr kinases (Upstate/Millipore); format: biochemical; conditions: 50 nM compound
Procedure: (§1) To evaluate selectivity versus other kinases, inhibition of various kinases by compound (II) was determined. In particular, IC50s for TrkA, Jak2, Axl tyrosine kinases were determined using ADP Hunter (DiscoverX) kinase assay. Single point profiling of compound (II) on 50 human tyrosine kinases and 10 Ser-Thr kinases was done at Upstate/Millipore by radiometric assay. […] The subset of the 520 kinases in the human kinome that were tested was strategically selected to cover most of the therapeutically relevant tyrosine kinases and to represent major branches of serine-threonine kinases.

[3] = test system: Karpas299; experiment: Cell proliferation inhibition, ALCL line Karpas299; format: cell-based; conditions: Homo sapiens, KARPAS-299; Example 4, most sensitive cell lines; read-out: Proliferation IC50 Karpas299
How it was run: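 NPM-ALK-positive Karpas-299 cells (2×10^4 per well) were treated with compound at final concentrations of 25 to 0.78125 μM, with DMSO-only controls. Proliferation and viability were read colorimetrically by XTT reduction to formazan.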

[4] = target: T1, CYP1A2 (Homo sapiens, UniProt P05177); experiment: CYP1A2 Inhibition (recombinant, CEC substrate); format: in vitro ADME; conditions: for CYP1A2 % Inhibition of Control Values, 1st/2nd/3rd: listed as CRL241, mean
T1 construct: purchased Cerep (contract assay, ADMET Study 13170)
T1 sequence (P05177 1-516): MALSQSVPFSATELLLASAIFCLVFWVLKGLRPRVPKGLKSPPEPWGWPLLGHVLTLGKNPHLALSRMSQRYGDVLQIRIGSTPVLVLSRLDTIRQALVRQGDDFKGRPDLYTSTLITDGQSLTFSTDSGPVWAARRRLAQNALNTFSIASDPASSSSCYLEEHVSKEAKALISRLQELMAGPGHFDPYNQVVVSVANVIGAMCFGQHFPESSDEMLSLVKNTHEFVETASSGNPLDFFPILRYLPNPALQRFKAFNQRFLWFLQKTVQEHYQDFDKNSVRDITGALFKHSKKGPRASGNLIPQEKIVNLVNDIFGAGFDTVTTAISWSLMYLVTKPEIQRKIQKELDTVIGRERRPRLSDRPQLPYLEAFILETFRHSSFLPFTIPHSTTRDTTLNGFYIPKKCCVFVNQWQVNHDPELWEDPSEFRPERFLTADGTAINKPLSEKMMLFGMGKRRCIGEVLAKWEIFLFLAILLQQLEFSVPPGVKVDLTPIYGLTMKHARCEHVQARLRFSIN

[5] = Pharmacokinetics study in CD-1 mice (IV, PO); format: in vivo; conditions: IV 1 mg/kg, time point 0.35, individual animals A-D
[6] = Metabolic Stability (liver micros., human), Cerep Study 13170; format: in vitro ADME; conditions: 1.0E−06 M, human liver microsomes
[7] = target: hERG (Homo sapiens, UniProt Q12809); experiment: hERG standard patch clamp in HEK293 (Cerep ADMET Study 13170); format: cell-based; conditions: 1 μM
Chain of hERG (Q12809 whole entry): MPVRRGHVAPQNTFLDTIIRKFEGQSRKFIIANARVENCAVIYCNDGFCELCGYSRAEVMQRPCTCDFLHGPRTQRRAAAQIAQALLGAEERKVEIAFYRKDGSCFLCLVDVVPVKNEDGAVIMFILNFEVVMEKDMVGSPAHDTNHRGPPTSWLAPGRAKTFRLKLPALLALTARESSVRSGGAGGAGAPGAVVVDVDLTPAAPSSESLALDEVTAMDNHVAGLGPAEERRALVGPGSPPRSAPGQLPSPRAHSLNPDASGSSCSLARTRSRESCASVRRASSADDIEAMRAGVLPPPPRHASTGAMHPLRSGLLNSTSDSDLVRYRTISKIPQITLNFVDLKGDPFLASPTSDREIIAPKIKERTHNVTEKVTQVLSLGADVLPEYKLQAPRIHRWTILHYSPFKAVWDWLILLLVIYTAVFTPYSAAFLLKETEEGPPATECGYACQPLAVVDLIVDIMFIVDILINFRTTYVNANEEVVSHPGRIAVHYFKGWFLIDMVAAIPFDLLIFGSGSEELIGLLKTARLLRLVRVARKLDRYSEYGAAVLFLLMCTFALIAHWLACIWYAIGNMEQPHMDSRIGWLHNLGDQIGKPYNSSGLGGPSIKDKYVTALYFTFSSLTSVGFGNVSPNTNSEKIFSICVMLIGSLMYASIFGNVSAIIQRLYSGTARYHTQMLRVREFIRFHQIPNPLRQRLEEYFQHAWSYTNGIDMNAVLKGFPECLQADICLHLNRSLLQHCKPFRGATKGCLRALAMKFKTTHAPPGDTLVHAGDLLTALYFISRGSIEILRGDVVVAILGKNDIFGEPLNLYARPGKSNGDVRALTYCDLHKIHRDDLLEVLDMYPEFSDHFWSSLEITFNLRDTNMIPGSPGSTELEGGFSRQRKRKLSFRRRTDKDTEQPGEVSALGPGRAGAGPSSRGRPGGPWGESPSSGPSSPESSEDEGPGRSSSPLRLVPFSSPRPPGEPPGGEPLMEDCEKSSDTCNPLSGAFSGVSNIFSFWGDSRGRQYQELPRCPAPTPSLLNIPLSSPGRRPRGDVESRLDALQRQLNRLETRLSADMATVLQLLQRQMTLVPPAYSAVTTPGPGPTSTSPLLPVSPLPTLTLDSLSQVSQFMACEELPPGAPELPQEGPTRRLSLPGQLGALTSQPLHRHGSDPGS
Procedure: The cardiac potassium channel, hERG, is responsible for the rapid delayed rectifier current (IKr) in the human ventricle. Inhibition of IKr is the most common cause of cardiac action potential prolongation by noncardiac drugs. Increased action potential duration causes prolongation of the QT interval that has been associated with a dangerous ventricular arrhythmia, torsade de pointer.
Compound (II) was initially tested at 1 μM concentration using a standard patch clamp protocol (Cerep ADMET Study 13170). The hERG channel was expressed in a human embryonic kidney (HEK293) cell line that lacks endogenous hERG channels. […] We have retested compound (II) in hERG assay in a range of lower concentrations to estimate IC50 of hERG inhibition more precisely (Qpatch 16 automated whole-cell patch clamp protocol in CHO-K1 cell line stably expressing hERG, Cerep hERG Study 13292). […] This kind of potency in hERG inhibition should not represent a significant clinical problem since the high degree of hERG inhibition would occur only at the compound concentrations above the expected therapeutic levels.

[8] = target: RET (Homo sapiens, UniProt P07949); experiment: Invitrogen SelectScreen Z-lyte kinase assay, Ret; format: biochemical; design: purchased Invitrogen (SelectScreen service); conditions: 100 μM ATP
Chain of RET (P07949 29-1114): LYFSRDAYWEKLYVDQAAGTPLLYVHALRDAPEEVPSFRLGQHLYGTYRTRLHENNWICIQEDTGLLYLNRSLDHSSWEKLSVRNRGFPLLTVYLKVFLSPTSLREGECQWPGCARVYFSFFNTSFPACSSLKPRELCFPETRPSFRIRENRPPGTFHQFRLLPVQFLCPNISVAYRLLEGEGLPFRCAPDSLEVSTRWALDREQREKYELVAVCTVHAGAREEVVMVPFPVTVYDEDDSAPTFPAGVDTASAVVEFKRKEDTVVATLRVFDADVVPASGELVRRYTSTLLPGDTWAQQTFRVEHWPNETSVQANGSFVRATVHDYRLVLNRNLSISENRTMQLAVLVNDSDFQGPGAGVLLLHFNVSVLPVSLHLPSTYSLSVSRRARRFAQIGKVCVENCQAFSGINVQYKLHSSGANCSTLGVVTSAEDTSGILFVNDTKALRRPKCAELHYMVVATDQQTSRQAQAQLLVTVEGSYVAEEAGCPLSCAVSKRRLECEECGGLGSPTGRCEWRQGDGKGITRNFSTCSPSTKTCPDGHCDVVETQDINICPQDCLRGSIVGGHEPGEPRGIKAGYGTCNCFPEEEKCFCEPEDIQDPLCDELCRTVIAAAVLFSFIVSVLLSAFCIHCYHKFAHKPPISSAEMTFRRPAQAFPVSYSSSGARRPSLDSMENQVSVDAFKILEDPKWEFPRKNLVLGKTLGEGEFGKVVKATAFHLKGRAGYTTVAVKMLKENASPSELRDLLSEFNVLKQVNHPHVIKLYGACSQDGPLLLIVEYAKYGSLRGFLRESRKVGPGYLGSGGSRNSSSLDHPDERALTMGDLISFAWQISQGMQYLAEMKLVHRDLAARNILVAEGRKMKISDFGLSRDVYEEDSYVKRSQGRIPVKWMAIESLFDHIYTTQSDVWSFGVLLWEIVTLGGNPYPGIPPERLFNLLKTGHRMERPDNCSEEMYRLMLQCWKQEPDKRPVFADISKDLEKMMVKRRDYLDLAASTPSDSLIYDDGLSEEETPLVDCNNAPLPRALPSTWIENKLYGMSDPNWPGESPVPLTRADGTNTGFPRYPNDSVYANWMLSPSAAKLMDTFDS
Procedure: as §1
Compound (II) was a multitargeted tyrosine kinase (TK) inhibitor with a distinct pattern of inhibition focused on ALK, Trk family, Ros and Ret kinases. Invitrogen SelectScreen (Z-lyte assay) produced the following IC5O values for this set of kinases: ALK 9.75 nM, TrkA 1.5 nM, TrkB 1.4 nM, TrkC 1.8 nM, Ret 7.1 nM, Ros 1.8 nM (all measured at 100 μM ATP). […] About 70% of the 50 TKs tested have selectivity in excess of 50-fold for ALK and higher for Ret, Ros and Trk family members.

## Cc1ccc(F)cc1C[C@H](C)Nc1cc[nH]c(=O)c1-c1nc2cc3c(cc2[nH]1)C(=O)N(CCN1CCCC1)C3 [compound (II)]
[1]
  Acute IV toxicity: no signs of toxicity were observed
[2]
  Inhibition of 10 structurally diverse Ser-Thr kinases: did not cause any significant inhibition
[3]
  pIC50: 8.00 to 8.30
[4]; 1 μM and 5 μM
  CYP1A2 inhibition: No inhibition was detected
[4]; 1.0E−06 M, Table 5B individual results
  CYP1A2 % Inhibition of Control Values, 1st/2nd/3rd: 106.6%
[4]; 5.0E−06 M, Table 5B individual results
  CYP1A2 % Inhibition of Control Values, 1st/2nd/3rd: 90.3%
[4]; recombinant CYP1A2, probe CEC, 1.0E−06 M, Table 5B individual results, read-out: CYP1A2 % Inhibition of Control Values, 1st/2nd/3rd
  activity at 1 µM: 110%
[4]; recombinant CYP1A2, probe CEC, 5.0E−06 M, Table 5B individual results, read-out: CYP1A2 % Inhibition of Control Values, 1st/2nd/3rd
  activity at 5 µM: 92.1%
[4]; recombinant CYP1A2, probe CEC, 1.0E−06 M, read-out: CYP1A2 % Inhibition of Control Values
  inhibition at 1 µM: -7%
[4]; recombinant CYP1A2, probe CEC, 5.0E−06 M, read-out: CYP1A2 % Inhibition of Control Values
  inhibition at 5 µM: 10%
[5]
  Plasma Concentration: 0.10041 µg/mL and 0.08928 µg/mL and 0.04161 µg/mL and 0.06453 µg/mL
[6]; 1 hr incubation
  Mean Parent Remaining: 73%
[6]; Table 8B
  Parent Remaining Mean: 73%
[6]; Table 8B, listed as CRL241
  Parent Remaining 1st/2nd: 70.3% and 76.4%
[7]
  % inhibition of tail current: 50.4%
[8]
  pIC50: 8.15
